The source of these data is US20040077636A1, “Restricting reinstatement of drug use” (priority 2000, published 2004).

Structures are written as SMILES. Entries after “also recorded” stand apart in the source; their conditions may differ.

For data set [1] the following is noted: pre-treatment; literature reports; cited from earlier work.
The subject of another data set is heroin-addicted rats. The following applies: Euro. J. Neurosci. 12, 292-302, 2000; cited from earlier work.
Data set [2] deals with Male Wistar rats. The data set is described as follows: Operant alcohol self-administration. The class given is in vivo. Conditions: average of two consecutive sessions, vs saline. On the procedure:
Animals: Male Wistar rats (Charles River, Montreal; weighing about 150-200 g. at the start of the experiments) were individually housed. Food and water were freely available in the home cages for 23 h/day. Food was not available during the 30 to 60 min daily session (see below). The temperature was maintained at 21±1° C. and the lights were on from 7 a.m. to 7 p.m. Rats were initially trained to consume alcohol in a limited access procedure (Linseman, 1987). The rats were given access to an alcohol solution and water in modified Richter tubes for 30 min/day in drinking cages. Alcohol solutions were provided in escalating concentrations: 3% w/v for the first 5 days 6% for the next 8 days and 12% for the last 10-12 days. Rats that consumed less than 0.4 g/kg per session during the last 10-12 days were excluded. All procedures were done in accordance with the guidelines of the Canadian Council on Animals Care and the ‘principle of laboratories animal care’ (NIH publication No. 85-23, revised 1985), and were approved by the local Animal Care Committee. […]
Analysis of variance with or without repeated measures were employed to analyse the data. […] In the first experiment, the average amounts of alcohol self-administered over a period of two days were used to quantify the effects of lofexidine treatment on alcohol self-administration. […]

The conditions of data set [3]: humans; cited from earlier work.
Data set [4] deals with Male Wistar rats. Kind of data set: Footshock stress-induced reinstatement of alcohol seeking. The class given is in vivo. Conditions: for reinstatement of alcohol seeking (responses on the active lever after footshock): vs saline, p<0.05. On the procedure:
Animals: Male Wistar rats (Charles River, Montreal; weighing about 150-200 g. at the start of the experiments) were individually housed. Food and water were freely available in the home cages for 23 h/day. Food was not available during the 30 to 60 min daily session (see below). The temperature was maintained at 21±1° C. and the lights were on from 7 a.m. to 7 p.m. Rats were initially trained to consume alcohol in a limited access procedure ([…], 1987). The rats were given access to an alcohol solution and water in modified Richter tubes for 30 min/day in drinking cages. Alcohol solutions were provided in escalating concentrations: 3% w/v for the first 5 days 6% for the next 8 days and 12% for the last 10-12 days. Rats that consumed less than 0.4 g/kg per session during the last 10-12 days were excluded. All procedures were done in accordance with the guidelines of the Canadian Council on Animals Care and the 'principle of laboratories animal care' (NIH publication No. 85-23, revised 1985), and were approved by the local Animal Care Committee. Apparatus: The alcohol self-administration system was built locally. Each operant chamber was equipped with two levers, symmetrically centered on the side panel. Responding on one lever (the active lever) activated the infusion pump (Razel Sci. Stamford, Conn., USA). […] During the infusion, a stimulus light above the active lever was turned on for 6 s. […] The grid floor of the operant cambers was connected to electric shock generators (Med Associates, Georgia, Vt., USA). Training and extinction of alcohol self-administration: Operant self-administration of alcohol was initiated on a fixed ration-1 schedule of reinforcement (FR-1, each lever press is reinforced) for 60 min per day for 5-7 days per week. Responding on the FR-1 schedule was maintained for 10-14 sessions. The requirement for alcohol delivery was then increased to FR-2 for five sessions. Subsequently, the schedule requirement was increased to an FR-3 schedule for 8-12 days until the rats obtained three days of stable drug taking (variability of less than 20% of the mean). During extinction sessions, presses on the previously active lever had no programmable consequences. […] Test for Reinstatement: Tests were conducted under extinction conditions. Intermittent footshock (0.8 mA; 0.5 s ON; a mean OFF period of 40 s; a range of 10-70 s) was administered for a period of 10 min just prior to the test sessions. Footshock was delivered through a scrambler to the stainless steel grid floor of the operant chambers. […] When the animals achieved extinction criterion, the effect of pre-treatment with lofexidine on footshock stress-induced reinstatement of alcohol seeking was determined as described above. […]

Data set [5] concerns Male Wistar rats. The data set is described as follows: Extinction of alcohol self-administration behaviour. The following applies: for responding on the active lever, second day of extinction: among the three groups. The class given is in vivo. On the procedure:
Animals: Male Wistar rats (Charles River, Montreal; weighing about 150-200 g. at the start of the experiments) were individually housed. Food and water were freely available in the home cages for 23 h/day. Food was not available during the 30 to 60 min daily session (see below). The temperature was maintained at 21±1° C. and the lights were on from 7 a.m. to 7 p.m. Rats were initially trained to consume alcohol in a limited access procedure (Linseman, 1987). The rats were given access to an alcohol solution and water in modified Richter tubes for 30 min/day in drinking cages. Alcohol solutions were provided in escalating concentrations: 3% w/v for the first 5 days 6% for the next 8 days and 12% for the last 10-12 days. Rats that consumed less than 0.4 g/kg per session during the last 10-12 days were excluded. All procedures were done in accordance with the guidelines of the Canadian Council on Animals Care and the ‘principle of laboratories animal care’ (NIH publication No. 85-23, revised 1985), and were approved by the local Animal Care Committee.
Apparatus: The alcohol self-administration system was built locally. Each operant chamber was equipped with two levers, symmetrically centered on the side panel. Responding on one lever (the active lever) activated the infusion pump (Razel Sci. Stamford, Conn., USA). […] During the infusion, a stimulus light above the active lever was turned on for 6 s. […] The grid floor of the operant cambers was connected to electric shock generators (Med Associates, Georgia, Vt., USA).
Training and extinction of alcohol self-administration: Operant self-administration of alcohol was initiated on a fixed ration-1 schedule of reinforcement (FR-1, each lever press is reinforced) for 60 min per day for 5-7 days per week. Responding on the FR-1 schedule was maintained for 10-14 sessions. The requirement for alcohol delivery was then increased to FR-2 for five sessions. Subsequently, the schedule requirement was increased to an FR-3 schedule for 8-12 days until the rats obtained three days of stable drug taking (variability of less than 20% of the mean). […]

Data set [6] in a line: Footshock stress-induced reinstatement of cocaine seeking. The class given is in vivo. The following applies: 0.150 mg/kg or 0.2 mg/kg.
The next data set concerns NE release. Conditions: doses employed in the present study; cited from earlier work.
For data set [7] the following is noted: in vivo; cited from earlier work.
Data set [8] deals with imidazoline-type 1 receptors. Conditions: cited from earlier work.

Regarding `Clc1cccc(Cl)c1N=C1NCCN1` [clonidine], the alcohol consumption result in [1] is listed as “reduction in alcohol consumption”. Besides, in the data set with heroin-addicted rats, the “foot-shock-induced reinstatement of heroin-seeking” value was “effective”.

As for `N=C(N)NC(=O)Cc1c(Cl)cccc1Cl` [guanfacine], in [1], the alcohol consumption entry is reported as “reduction in alcohol consumption”.

With `CC(Oc1c(Cl)cccc1Cl)C1=NCCN1` (stereo not drawn) [lofexidine, Lofexidine], the “alcohol self-administration (amount of alcohol self-administered during 1-hour session)” value was “no significant differences; also recorded: did not reach statistical significance” in the data set with Male Wistar rats [2] (0.05 mg/kg IP 1 h before session) and “significantly lower; also recorded: significantly suppresses” with Male Wistar rats [2] (0.1 mg/kg IP 1 h before session, p<0.05). Also, the “adverse side effects compared with clonidine, in particular hypotensive effects” value in data set [3] is on record as “fewer adverse side effects”. Further, the “reinstatement of alcohol seeking (responses on the active lever after footshock)” value with Male Wistar rats [4] (0.05 mg/kg IP 1 h before 10 min intermittent footshock), in the data set with Male Wistar rats [4] (0.1 mg/kg IP 1 h before 10 min intermittent footshock) and in the data set with Male Wistar rats [4] (0.2 mg/kg IP 1 h before 10 min intermittent footshock) was “significantly suppressed” each time. Further, in the data set with Male Wistar rats [4] (doses ranging from 0.05 to 0.2 mg/kg, intermittent footshock stress), the “reinstatement of alcohol seeking” value is “completely suppressed”. For the same molecule, the “responding on the active lever, second day of extinction” value with Male Wistar rats [5] (0.05 mg/kg IP daily) and in the data set with Male Wistar rats [5] (0.1 mg/kg IP daily) was “no significant differences” throughout. Moreover, the “responding on the active lever, first day of extinction” value with Male Wistar rats [5] (0.1 mg/kg IP daily 1 h before session, vs saline and lower dose group) is “significantly lower; also recorded: significant decrease”. The “footshock stress-induced reinstatement of cocaine seeking” value in data set [6] is “attenuation; also recorded: suppressed”. Moreover, the “stress induced NE release in the pre-frontal cortex and amygdala” value in the data set with NE release is “block”. Also, the hypotensive effect entry in [7] was “minimal hypotensive effect”. Also, the “affinity for imidazoline-type 1 (I2) receptors” value in data set [8] is reported as “high affinity”.

Turning to `Cc1csc(Cl)c1NC1=NCCN1` [tiamedine], in data set [1], the alcohol consumption entry is listed as “reduction in alcohol consumption”.
